# Experiments:
# Type in all cases: in vivo
# [1] = tested on: barnyardgrass (Echinochloa crus-galli); assay: Test C greenhouse herbicide test, pre- and postemergence
# Source text: (§1) Seeds of plant species selected from blackgrass (Alopecurus myosuroides), ryegrass, Italian (Italian ryegrass, Lolium multiflorum), wheat (winter wheat, Triticum aestivum), galium (catchweed bedstraw, Galium aparine), corn (Zea mays), large crabgrass, large (large crabgrass, Digitaria sanguinalis), foxtail, giant (giant foxtail, Setaria faberii), johnsongrass (Sorghum halepense), lambsquarters (Chenopodium album), morningglory (Ipomoea coccinea), nutsedge, yellow (yellow nutsedge, Cyperus esculentus), pigweed (Amaranthus retroflexus), ragweed (common ragweed, Ambrosia elatior), soybean (Glycine max), barnyardgrass (Echinochloa crus-galli), oilseed rape (Brassica napus), waterhemp (common waterhemp, Amaranthus rudis), and velvetleaf (Abutilon theophrasti) were planted into a blend of loam soil and sand and treated preemergence with test chemicals formulated in a non-phytotoxic solvent mixture which included a surfactant.
# (§2) At the same time, plants selected from these crop and weed species and also chickweed (common chickweed, Stellaria media), kochia (Kochia scoparia), and oat, wild (wild oat, Avena fatua), were planted in pots containing Redi-Earth® planting medium (Scotts Company, 14111 Scottslawn Road, Marysville, Ohio 43041) comprising spaghnum peat moss, vermiculite, wetting agent and starter nutrients and treated with postemergence applications of test chemicals formulated in the same manner. Plants ranged in height from 2 to 18 cm (1- to 4-leaf stage) for postemergence treatments. Treated plants and controls were maintained in a greenhouse for 13 to 15 d, after which time all species were compared to controls and visually evaluated. Plant response ratings, summarized in Table C, are based on a scale of 0 to 100 where 0 is no effect and 100 is complete control. A dash (-) response means no test result.
# [2] = tested on: blackgrass (Alopecurus myosuroides); assay: as above
# Source text: as §1, §2
# corn (Zea mays) = assay: as above
# Source text: as §1, §2
# [3] = tested on: crabgrass, large (large crabgrass, Digitaria sanguinalis); assay: as above
# Source text: as §1, §2
# [4] = tested on: foxtail, giant (giant foxtail, Setaria faberii); assay: as above
# Source text: as §1, §2
# [5] = tested on: johnsongrass (Sorghum halepense); assay: as above
# Source text: as §1, §2
# [6] = tested on: lambsquarters (Chenopodium album); assay: as above
# Source text: as §1, §2
# [7] = tested on: morningglory (Ipomoea coccinea); assay: as above
# Source text: as §1, §2
# [8] = tested on: pigweed (Amaranthus retroflexus); assay: as above
# Source text: as §1, §2
# [9] = tested on: ragweed (common ragweed, Ambrosia elatior); assay: as above
# Source text: as §1, §2
# [10] = tested on: ryegrass, Italian (Italian ryegrass, Lolium multiflorum); assay: as above
# Source text: as §1, §2
# soybean (Glycine max) = assay: as above
# Source text: as §1, §2
# [11] = tested on: waterhemp (common waterhemp, Amaranthus rudis); assay: as above
# Source text: as §1, §2
# [12] = tested on: wheat (winter wheat, Triticum aestivum); assay: as above
# Source text: as §1, §2
# kochia (Kochia scoparia) = assay: Test C greenhouse herbicide test, postemergence
# Procedure, shortened: (§3)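 Steps: pot plants in peat-based medium; spray postemergence at 1- to 4-leaf stage; hold in greenhouse 13 to 15 d; score visually against controls from 0 (no effect) to 100 (complete control).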
# [13] = tested on: oat, wild (wild oat, Avena fatua); assay: Test C greenhouse herbicide test, postemergence
# Procedure, shortened: as §3
# [14] = Postemergence, 31 g ai/ha, 0 to 100 scale (0 no effect, 100 complete control)
# [15] = Postemergence, 125 g ai/ha, scale 0 to 100, 0 is no effect, 100 is complete control
# [16] = Postemergence, 250 g ai/ha, scale 0 to 100, 0 no effect, 100 complete control, 13 to 15 d
# [17] = Preemergence, 31 g ai/ha, scale 0 to 100, 0 is no effect, 100 is complete control
# [18] = Preemergence, 62 g ai/ha, scale 0 to 100, 0 is no effect, 100 is complete control
# [19] = Preemergence, 125 g ai/ha, scale 0 to 100, 0 is no effect, 100 is complete control
# [20] = Preemergence, 250 g ai/ha, scale 0 to 100 (0 no effect, 100 complete control)
# [21] = postemergence, 62 g ai/ha, scale 0 to 100, 0 no effect, 100 complete control
smiles,measurement,setting,value
CC(=O)Oc1c(C)nn(C)c(=O)c1-c1c(C)sc2ccc(C)cc12 [Compound 25],Barnyardgrass plant response rating,[1]; [14],15
same,"Plant response rating, Barnyardgrass",[1]; [15],20
same,"Plant response rating, Barnyardgrass",[1]; [16],25
same,"Plant response rating, Barnyardgrass",[1]; [17],0
same,"Plant response rating, Barnyardgrass",[1]; [18],30
same,"Plant response rating, Barnyardgrass",[1]; [19],70
same,Barnyardgrass plant response rating,[1]; [20],85
same,Barnyardgrass plant response rating,[1]; [21],20
same,Blackgrass plant response rating,[2]; [14],30
same,"Plant response rating, Blackgrass",[2]; [15],60
same,"Plant response rating, Blackgrass",[2]; [16],80
same,"Plant response rating, Blackgrass",[2]; [17],85
same,"Plant response rating, Blackgrass",[2]; [18],85
same,"Plant response rating, Blackgrass",[2]; [19],90
same,Blackgrass plant response rating,[2]; [20],90
same,Blackgrass plant response rating,[2]; [21],55
same,Corn plant response rating,corn (Zea mays); [14],5
same,"Plant response rating, Corn",corn (Zea mays); [15],5
same,"Plant response rating, Corn",corn (Zea mays); [16],10
same,"Plant response rating, Corn",corn (Zea mays); [17],0
same,"Plant response rating, Corn",corn (Zea mays); [18],0
same,"Plant response rating, Corn",corn (Zea mays); [19],0
same,Corn plant response rating,corn (Zea mays); [20],10
same,Corn plant response rating,corn (Zea mays); [21],5
same,"Crabgrass, Large plant response rating",[3]; [14],5
same,"Plant response rating, Crabgrass, Large",[3]; [15],20
same,"Plant response rating, Crabgrass, Large",[3]; [16],20
same,"Plant response rating, Crabgrass, Large",[3]; [17],70
same,"Plant response rating, Crabgrass, Large",[3]; [18],75
same,"Plant response rating, Crabgrass, Large",[3]; [19],95
same,"Crabgrass, Large plant response rating",[3]; [20],90
same,"Crabgrass, Large plant response rating",[3]; [21],15
same,"Foxtail, Giant plant response rating",[4]; [14],35
same,"Plant response rating, Foxtail, Giant",[4]; [15],70
same,"Plant response rating, Foxtail, Giant",[4]; [16],85
same,"Plant response rating, Foxtail, Giant",[4]; [17],75
same,"Plant response rating, Foxtail, Giant",[4]; [18],85
same,"Plant response rating, Foxtail, Giant",[4]; [19],90
same,"Foxtail, Giant plant response rating",[4]; [20],100
same,"Foxtail, Giant plant response rating",[4]; [21],35
same,Johnsongrass plant response rating,[5]; [14],0
same,"Plant response rating, Johnsongrass",[5]; [15],5
same,"Plant response rating, Johnsongrass",[5]; [16],10
same,"Plant response rating, Johnsongrass",[5]; [17],0
same,"Plant response rating, Johnsongrass",[5]; [18],0
same,"Plant response rating, Johnsongrass",[5]; [19],5
same,Johnsongrass plant response rating,[5]; [20],20
same,Johnsongrass plant response rating,[5]; [21],5
same,Lambsquarters plant response rating,[6]; [14],90
same,"Plant response rating, Lambsquarters",[6]; [15],98
same,"Plant response rating, Lambsquarters",[6]; [16],98
same,"Plant response rating, Lambsquarters",[6]; [17],80
same,"Plant response rating, Lambsquarters",[6]; [18],85
same,"Plant response rating, Lambsquarters",[6]; [19],85
same,Lambsquarters plant response rating,[6]; [20],95
same,Lambsquarters plant response rating,[6]; [21],95
same,Morningglory plant response rating,[7]; [14],100
same,"Plant response rating, Morningglory",[7]; [15],100
same,"Plant response rating, Morningglory",[7]; [16],100
same,"Plant response rating, Morningglory",[7]; [17],85
same,"Plant response rating, Morningglory",[7]; [18],95
same,"Plant response rating, Morningglory",[7]; [19],95
same,Morningglory plant response rating,[7]; [20],100
same,Morningglory plant response rating,[7]; [21],100
same,Pigweed plant response rating,[8]; [14],90
same,"Plant response rating, Pigweed",[8]; [15],95
same,"Plant response rating, Pigweed",[8]; [16],98
same,"Plant response rating, Pigweed",[8]; [17],100
same,"Plant response rating, Pigweed",[8]; [18],100
same,"Plant response rating, Pigweed",[8]; [19],100
same,Pigweed plant response rating,[8]; [20],100
same,Pigweed plant response rating,[8]; [21],90
same,Ragweed plant response rating,[9]; [14],90
same,"Plant response rating, Ragweed",[9]; [15],95
same,"Plant response rating, Ragweed",[9]; [16],95
same,"Plant response rating, Ragweed",[9]; [17],80
same,"Plant response rating, Ragweed",[9]; [18],95
same,"Plant response rating, Ragweed",[9]; [19],98
same,Ragweed plant response rating,[9]; [20],95
same,Ragweed plant response rating,[9]; [21],85
same,"Ryegrass, Italian plant response rating",[10]; [14],70
same,"Plant response rating, Ryegrass, Italian",[10]; [15],90
same,"Plant response rating, Ryegrass, Italian",[10]; [16],95
same,"Plant response rating, Ryegrass, Italian",[10]; [17],90
same,"Plant response rating, Ryegrass, Italian",[10]; [18],95
same,"Plant response rating, Ryegrass, Italian",[10]; [19],95
same,"Ryegrass, Italian plant response rating",[10]; [20],95
same,"Ryegrass, Italian plant response rating",[10]; [21],85
same,Soybean plant response rating,soybean (Glycine max); [14],0
same,"Plant response rating, Soybean",soybean (Glycine max); [15],10
same,"Plant response rating, Soybean",soybean (Glycine max); [16],10
same,"Plant response rating, Soybean",soybean (Glycine max); [18],0
same,"Plant response rating, Soybean",soybean (Glycine max); [19],0
same,Soybean plant response rating,soybean (Glycine max); [20],5
same,Soybean plant response rating,soybean (Glycine max); [21],0
same,Waterhemp plant response rating,[11]; [14],75
same,"Plant response rating, Waterhemp",[11]; [15],95
same,"Plant response rating, Waterhemp",[11]; [16],98
same,"Plant response rating, Waterhemp",[11]; [18],100
same,"Plant response rating, Waterhemp",[11]; [19],100
same,Waterhemp plant response rating,[11]; [20],100
same,Waterhemp plant response rating,[11]; [21],95
same,Wheat plant response rating,[12]; [14],0
same,"Plant response rating, Wheat",[12]; [15],0
same,"Plant response rating, Wheat",[12]; [16],5
same,"Plant response rating, Wheat",[12]; [18],0
same,"Plant response rating, Wheat",[12]; [19],0
same,Wheat plant response rating,[12]; [20],5
same,Wheat plant response rating,[12]; [21],0
same,Kochia plant response rating,kochia (Kochia scoparia); [14],95
same,"Plant response rating, Kochia",kochia (Kochia scoparia); [15],100
same,"Plant response rating, Kochia",kochia (Kochia scoparia); [16],100
same,Kochia plant response rating,kochia (Kochia scoparia); [21],95
same,"Oat, Wild plant response rating",[13]; [14],60
same,"Plant response rating, Oat, Wild",[13]; [15],90
same,"Plant response rating, Oat, Wild",[13]; [16],95
same,"Oat, Wild plant response rating",[13]; [21],70

# Source: patent US10597388B2, “Pyridazinone herbicides” (FMC CORPORATION, priority 2014, dated 2020)
